Results as given in ChEMBL document CHEMBL1143875, “Synthesis and structure-activity relationships of thiadiazole-derivatives as potent and orally active peroxisome proliferator-activated receptors alpha/delta dual agonists” (Bioorg Med Chem, 2008).
Calls of active or inactive are those of the source. No cut-off for these calls is given here.

Experiments:
[1] = Cmax in ob/ob C57BL/6J-leptin deficient obese mouse at 0.3 mg/kg administered as multiple dose after 11 days; assay type: ADME, organism-based; set-up: dose 0.3 mg/kg; details: in vivo
[2] = Cmax in ob/ob C57BL/6J-leptin deficient obese mouse at 1 mg/kg administered as multiple dose after 11 days; assay type: ADME, organism-based; set-up: dose 1 mg/kg; details: in vivo
[3] = AUC in ob/ob C57BL/6J-leptin deficient obese mouse at 0.1 mg/kg administered as multiple dose after 11 days; assay type: ADME, organism-based; set-up: dose 0.1 mg/kg; details: plasma
[4] = Cmax in ob/ob C57BL/6J-leptin deficient obese mouse at 3 mg/kg administered as multiple dose after 11 days; assay type: ADME, organism-based; set-up: dose 3 mg/kg; details: in vivo
Mus musculus [5] = assay: […] effect of ob/ob C57BL/6J-leptin deficient obese mouse assessed as reduction in serum glucose level at 0.1 to 3 mg/kg, po after 11 days; assay type: functional; set-up: scale not given: the % may be the effect or the level left; details: dose mg/kg 0.1-3
[6] = Cmax in Beagle dog at 1 mg/kg administered as multiple dose after 7 days; assay type: ADME, organism-based, Canis lupus familiaris; set-up: dose 1 mg/kg; details: in vivo
Mus musculus [7] = assay: […] effect of ob/ob C57BL/6J-leptin deficient obese mouse assessed as reduction in body weight at 0.1 to 3 mg/kg, po after 11 days; assay type: functional, organism-based
[8] = Half life in Sprague-Dawley rat at 0.3 mg/kg administered as multiple dose after 8 days; assay type: ADME, organism-based; set-up: dose 0.3 mg/kg; details: in vivo
[9] = AUC in Beagle dog at 0.3 mg/kg administered as multiple dose after 7 days; assay type: ADME, organism-based, Canis lupus familiaris; set-up: dose 0.3 mg/kg; details: plasma
Canis familiaris = assay: Antihyperlipidemic activity in Beagle dog serum assessed as reduction in triglyceride level at 0.3 to 10 mg/kg, po/day after 7 days; assay type: functional, organism-based; details: Canis lupus familiaris
[10] = Cmax in ob/ob C57BL/6J-leptin deficient obese mouse at 3 mg/kg administered as single dose on day 11; assay type: ADME, organism-based; set-up: dose 3 mg/kg; details: in vivo
Mus musculus [11] = assay: Reduction in triglyceride level in po dosed hApoA1 transgenic mouse after 7 days; assay type: functional, organism-based
[12] = AUC in Beagle dog at 1 mg/kg administered as multiple dose after 7 days; assay type: ADME, organism-based, Canis lupus familiaris; set-up: dose 1 mg/kg; details: plasma
[13] = Half life in Beagle dog at 3 mg/kg administered as multiple dose after 7 days; assay type: ADME, organism-based, Canis lupus familiaris; set-up: dose 3 mg/kg; details: in vivo
[14] = Cmax in Sprague-Dawley rat at 1 mg/kg administered as multiple dose after 8 days; assay type: ADME, organism-based; set-up: dose 1 mg/kg; details: in vivo
[15] = Induction of Pa9 gene expression in human skeletal muscle cells at 1 nM by RT-PCR; assay type: functional
[16] = Half life in ob/ob C57BL/6J-leptin deficient obese mouse at 1 mg/kg administered as multiple dose after 11 days; assay type: ADME, organism-based; set-up: dose 1 mg/kg; details: in vivo
[17] = AUC in Sprague-Dawley rat at 0.1 mg/kg administered as multiple dose after 8 days; assay type: ADME, organism-based; set-up: dose 0.1 mg/kg; details: plasma
[18] = Cmax in Beagle dog at 10 mg/kg administered as single dose on day 7; assay type: ADME, organism-based, Canis lupus familiaris; set-up: dose 10 mg/kg; details: in vivo
[19] = AUC in ob/ob C57BL/6J-leptin deficient obese mouse at 3 mg/kg administered as single dose on day 11; assay type: ADME, organism-based; set-up: dose 3 mg/kg; details: plasma
[20] = biological target: T1, Peroxisome proliferator-activated receptor delta (Homo sapiens, UniProt Q03181); assay: Agonist activity at human PPARdelta-Gal4 in HEK293 cells by luciferase reporter assay; assay type: functional, cell-based
T1 sequence (Q03181 whole entry): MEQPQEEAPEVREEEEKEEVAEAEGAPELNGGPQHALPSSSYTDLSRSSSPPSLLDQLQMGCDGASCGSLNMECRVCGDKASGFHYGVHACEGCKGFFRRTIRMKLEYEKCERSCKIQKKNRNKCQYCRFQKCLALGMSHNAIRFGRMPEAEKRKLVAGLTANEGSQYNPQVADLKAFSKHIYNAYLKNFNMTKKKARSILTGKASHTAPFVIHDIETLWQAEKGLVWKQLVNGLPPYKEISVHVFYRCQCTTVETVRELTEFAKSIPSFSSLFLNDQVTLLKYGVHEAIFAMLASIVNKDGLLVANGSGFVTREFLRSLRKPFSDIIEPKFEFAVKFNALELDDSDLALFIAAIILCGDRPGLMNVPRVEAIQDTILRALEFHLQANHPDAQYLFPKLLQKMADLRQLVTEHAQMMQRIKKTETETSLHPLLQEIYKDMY

[21] = Half life in Sprague-Dawley rat at 3 mg/kg administered as single dose on day 8; assay type: ADME, organism-based; set-up: dose 3 mg/kg; details: in vivo
[22] = biological target: T2, Glucocorticoid receptor (Homo sapiens) (UniProt P04150); assay: Activity at glucocorticoid receptor
T2 sequence (whole entry): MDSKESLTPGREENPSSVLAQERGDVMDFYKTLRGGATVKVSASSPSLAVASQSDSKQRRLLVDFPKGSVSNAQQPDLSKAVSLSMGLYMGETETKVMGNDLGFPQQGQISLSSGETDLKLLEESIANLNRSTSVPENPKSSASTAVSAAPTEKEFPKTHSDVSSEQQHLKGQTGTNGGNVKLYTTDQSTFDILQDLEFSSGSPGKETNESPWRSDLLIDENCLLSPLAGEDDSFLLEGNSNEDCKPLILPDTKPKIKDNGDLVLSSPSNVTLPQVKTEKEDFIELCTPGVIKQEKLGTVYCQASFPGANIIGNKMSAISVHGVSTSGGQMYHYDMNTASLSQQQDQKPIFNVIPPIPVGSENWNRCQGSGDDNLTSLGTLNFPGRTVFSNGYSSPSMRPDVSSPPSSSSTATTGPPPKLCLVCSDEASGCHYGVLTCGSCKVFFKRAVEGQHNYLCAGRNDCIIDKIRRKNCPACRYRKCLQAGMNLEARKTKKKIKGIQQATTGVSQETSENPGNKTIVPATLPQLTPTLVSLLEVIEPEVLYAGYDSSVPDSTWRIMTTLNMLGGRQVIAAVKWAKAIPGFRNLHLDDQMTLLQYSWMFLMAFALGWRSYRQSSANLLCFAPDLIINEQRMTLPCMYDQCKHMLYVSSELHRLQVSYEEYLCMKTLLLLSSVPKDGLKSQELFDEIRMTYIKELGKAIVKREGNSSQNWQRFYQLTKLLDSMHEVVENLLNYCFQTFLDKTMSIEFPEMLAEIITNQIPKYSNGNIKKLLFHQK

[23] = Half life in ob/ob C57BL/6J-leptin deficient obese mouse at 3 mg/kg administered as multiple dose after 11 days; assay type: ADME, organism-based; set-up: dose 3 mg/kg; details: in vivo
[24] = Half life in Sprague-Dawley rat at 0.1 mg/kg administered as multiple dose after 8 days; assay type: ADME, organism-based; set-up: dose 0.1 mg/kg; details: in vivo
[25] = Cmax in ob/ob C57BL/6J-leptin deficient obese mouse at 0.1 mg/kg administered as multiple dose after 11 days; assay type: ADME, organism-based; set-up: dose 0.1 mg/kg; details: in vivo
[26] = AUC in Beagle dog at 10 mg/kg administered as single dose on day 7; assay type: ADME, organism-based, Canis lupus familiaris; set-up: dose 10 mg/kg; details: plasma
[27] = AUC in Sprague-Dawley rat at 3 mg/kg administered as multiple dose after 8 days; assay type: ADME, organism-based; set-up: dose 3 mg/kg; details: plasma
[28] = Induction of ABCA1 gene expression in human skeletal muscle cells at 1000 nM by RT-PCR; assay type: functional
[29] = Half life in Beagle dog at 10 mg/kg administered as single dose on day 7; assay type: ADME, organism-based, Canis lupus familiaris; set-up: dose 10 mg/kg; details: in vivo
[30] = Half life in ob/ob C57BL/6J-leptin deficient obese mouse at 3 mg/kg administered as single dose on day 11; assay type: ADME, organism-based; set-up: dose 3 mg/kg; details: in vivo
Rattus norvegicus = assay: Decrease in total cholesterol level in hypercholesterolemic Sprague-Dawley rat serum at 0.1 to 1 mg/kg, po after 8 days; assay type: functional; details: dose mg/kg 0.1-1

Cc1cc(SCc2nc(-c3ccc(Cl)c(Cl)c3)ns2)ccc1OC(C)(C)C(=O)O
Cmax [1]: 1840 ng/mL
Cmax [2]: 6830 ng/mL
AUC at 264 h [3]: 2780 ng·h/mL
Cmax [4]: 26300 ng/mL
Activity (Mus musculus [5]): 52%
Cmax [6]: 1530 ng/mL
Activity (Mus musculus [7]): Active
half-life [8]: 5.1 h
AUC at 168 h [9]: 2650 ng·h/mL
Activity (Canis familiaris): Dose-dependent effect
Cmax [10]: 19300 ng/mL
Activity (Mus musculus [11]): Active
AUC at 168 h [12]: 6500 ng·h/mL
half-life [13]: 6 h
Cmax [14]: 1360 ng/mL
Fold change [15]: 3.8
half-life [16]: 5.2 h
AUC at 192 h [17]: 738 ng·h/mL
Cmax [18]: 10100 ng/mL
AUC [19]: 115000 ng·h/mL
EC50 [20]: 8 nM
half-life [21]: 7.2 h
Activity [22]: inactive
half-life [23]: 6.7 h
half-life [24]: 5.5 h
Cmax [25]: 480 ng/mL
AUC [26]: 57200 ng·h/mL
AUC at 192 h [27]: 27100 ng·h/mL
Fold change [28]: 4.8
half-life [29]: 5.8 h
half-life [30]: 5.1 h
Activity (Rattus norvegicus): 263 mg/dL
